# Measured values taken from patent publication US3950537A, “Gastrointestinally active thioureas” (Rohm and Haas Company, priority 1975, dated 1976).
# Counter-ions that a name gives are not always drawn.
# What was measured:
# [1] = system: diarrhea; assay: Antidiarrheal test (castor oil diarrhea); format: in vivo, Swiss-Webster mice (adult male); conditions: Mus musculus; oral, 1 h before castor oil; diarrhea noted 3 h later; maximum 30 mg./kg.; read-out: Antidiarrheal ED50 (inhibited diarrhea in 50% of the treated mice)
# Method: In this test adult male Swiss-Webster mice weighing 30 to 40 g. were employed, using 6 mice per treatment. The test compound was administered orally in a dosage series with a maximum of 30 mg./kg. either in water if soluble or else in 0.5% methyl cellulose. One hour after treatment, each animal received a single dose of 0.3 ml. of castor oil, administered orally. The animals were then individually caged and provided food and water.
# [2] = system: charcoal entering the cecum; assay: Antimotility test (charcoal entering the cecum); format: in vivo, mice (adult male); conditions: for ED50: Mus musculus, oral, 1 h before charcoal, examined 3.5 h after charcoal, maximum dosage 30 mg./kg., read-out: Antimotility ED50 (prevented the charcoal from entering the cecum in 50% of the treated mice); for found to be active in the antimotility tests: mice, in words
# Method: Adult male mice weighing in the range of 20 to 30 g. were starved for 24 hours prior to the test. The animals were then treated orally with the test compound dissolved in water or suspended in methyl cellulose. One hour later, each animal was dosed with 0.2 ml. of a charcoal suspension consisting of 5% activated charcoal suspended in 0.25% methyl cellulose. The animals were sacrificed 3.5 hours after the charcoal administration and their cecums examined for the presence or absence of charcoal. […] A maximum dosage of 30 mg./kg. was used.
# [3] = system: gastric secretion; assay: Antisecretory test (pyloric ligation, gastric secretion volume); format: in vivo, Wistar rats (adult female); conditions: for ED50: Rattus norvegicus, orally 1 hour prior to pyloric ligation or subcutaneously immediately after, 5 h after ligation, maximum dosage 10 mg./kg., read-out: Antisecretory Activity ED50 (50% reduction in the volume of gastric secretion); for found to be active in the antisecretory test: rats, pyloric ligation, in words
# Method: Adult female Wistar rats weighing 140 to 160 g. were starved for 24 hours prior to the test. The animals were anaesthetized with ether, shaved on the abdomen, and a small midline incision made. The pylorus was exposed, ligated, and the wound subsequently closed with wound clips. The animals were treated with the test compound administered either orally 1 hour prior to pyloric ligation or subcutaneously immediately after ligation. The test compound was administered in distilled water or 0.5% methyl cellulose. Six animals were used for each treatment. Five hours following the ligation, the animals were sacrificed, the stomachs were carefully removed and opened, and the gastric contents measured for volume and titratable acidity. […] A maximum dosage of 10 mg./kg. was used for the test compounds.
structure (smiles),measurement,setting,value
Cc1ccccc1NC(=S)NCCO [A],ED50,[1],7.8 mg/kg
same,ED50,[2],11.5 mg/kg
same,ED50,[3],3 to 10 mg/kg
Cc1cc(C)c(NC(=S)NCCO)c(C)c1 [Preparation S],found to be active in the antimotility tests,[2],active
same,found to be active in the antisecretory test,[3],active
Cc1cc(Br)ccc1NC(=S)NCCO [O],ED50,[1],> 30 mg/kg
same,ED50,[2],18.5 mg/kg
same,ED50,[3],< 10 mg/kg
OCCNC(=S)Nc1ccc2ccccc2c1 [U],ED50,[1],> 30 mg/kg
same,ED50,[2],> 30 mg/kg
same,ED50,[3],> 10 mg/kg
Cc1c(Cl)cccc1NC(=S)NCCO [Preparation K],found to be active in the antimotility tests,[2],active
Cc1ccc(Cl)cc1NC(=S)NCCO [Preparation M],found to be active in the antimotility tests,[2],active
Cc1ccc(C)c(NC(=S)NCCO)c1 [G],ED50,[1],> 30 mg/kg
same,ED50,[2],> 30 mg/kg
same,ED50,[3],> 10 mg/kg
Cc1cc(Cl)ccc1NC(=S)NCCN [Preparation AJ],found to be active in the antimotility tests,[2],active
Cc1ccc(NC(=S)NCC(C)O)c(C)c1 (stereo not shown) [AP],ED50,[1],> 30 mg/kg
same,ED50,[2],> 30 mg/kg
same,ED50,[3],> 10 mg/kg
Cc1ccc(NC(=S)NCCN)c(C)c1 [AG],ED50,[1],10 mg/kg
same,ED50,[2],13 mg/kg
same,ED50,[3],> 10 mg/kg
Cc1cc(Cl)ccc1NC(=S)NCCN [AJ],ED50,[2],30 mg/kg
same,ED50,[3],> 10 mg/kg
Cc1cc(Cl)ccc1NC(=S)N(C)C [AD],ED50,[2],< 30 mg/kg
same,ED50,[3],> 10 mg/kg
OCCNC(=S)Nc1ccc(Cl)cc1Cl [P],ED50,[1],> 30 mg/kg
same,ED50,[2],> 30 mg/kg
same,ED50,[3],> 10 mg/kg
"COc1ccc2c3c1O[C@H]1[C@@H](O)C=C[C@H]4[C@@H](C2)N(C)CC[C@@]341 [codeine phosphate, reference compound]",ED50,[1],35 mg/kg
same,ED50,[2],29 mg/kg
COc1ccc(NC(=S)NCCO)c(C)c1 [R],ED50,[1],30 mg/kg
same,ED50,[2],12.5 mg/kg
same,ED50,[3],> 10 mg/kg
Cc1ccc(NC(=S)NCCO)cc1C [I],ED50,[1],> 30 mg/kg
same,ED50,[2],> 30 mg/kg
same,ED50,[3],> 10 mg/kg
"Cc1cccc(C)c1NC(=S)NCCO [Preparation H, 1-(2,6-dimethylphenyl)-3-(2-hydroxyethyl)thiourea]",found to be active in the antimotility tests,[2],active
same,found to be active in the antisecretory test,[3],active
Cc1cccc(C)c1NC(=S)NCCO [H],ED50,[1],4.3 mg/kg
same,ED50,[2],2.4 mg/kg
same,ED50,[3],0.5 to 1 mg/kg
CC(C)c1ccccc1NC(=S)NCCO [C],ED50,[1],> 30 mg/kg
same,ED50,[2],> 30 mg/kg
same,ED50,[3],> 10 mg/kg
"CN1CCCN=C1COC(=O)C(O)(c1ccccc1)C1CCCCC1 (stereo not shown) [Daricon, oxyphencyclimine hydrochloride, reference compound]",ED50,[1],50 mg/kg
same,ED50,[2],3.4 mg/kg
same,ED50,[3],2.4 mg/kg
Cc1cccc(Cl)c1NC(=S)NCCO [N],ED50,[2],< 30 mg/kg
same,ED50,[3],> 10 mg/kg
Cc1ccc(NC(=S)NCCO)c(C)c1 [F],ED50,[1],10.5 mg/kg
same,ED50,[2],8.6 mg/kg
same,ED50,[3],0.5 to 1 mg/kg
Cc1ccc(Cl)cc1NC(=S)NCCO [M],ED50,[1],15 to 30 mg/kg
same,ED50,[2],7.4 mg/kg
same,ED50,[3],> 10 mg/kg
Cc1cccc(C)c1NC(=S)N(C)C [AC],ED50,[2],< 30 mg/kg
same,ED50,[3],> 10 mg/kg
Cc1cccc(C)c1NC(=S)N(C)C [Preparation AC],found to be active in the antimotility tests,[2],active
Cc1cccc(C)c1NC(=S)NCCN [Preparation AI],found to be active in the antimotility tests,[2],active
CNC(=S)Nc1ccc(C)cc1C [AE],ED50,[2],> 30 mg/kg
same,ED50,[3],> 10 mg/kg
CCNC(=S)Nc1ccc(C)cc1C [AF],ED50,[2],> 30 mg/kg
same,ED50,[3],> 10 mg/kg
Cc1ccc(NC(=S)NCCN(C)C)c(C)c1 [AH],ED50,[1],> 30 mg/kg
same,ED50,[2],20 mg/kg
same,ED50,[3],> 10 mg/kg
"CC(C)[N+](C)(CCOC(=O)C1c2ccccc2Oc2ccccc21)C(C)C [Pro-Banthine, propantheline bromide, reference compound]",ED50,[1],> 80 mg/kg
same,ED50,[2],14.7 mg/kg
same,ED50,[3],8 mg/kg
"Cc1ccccc1NC(=S)NCCO [Preparation A, 1-(2-methylphenyl)-3-(2-hydroxyethyl)thiourea]",found to be active in the antimotility tests,[2],active
same,found to be active in the antisecretory test,[3],active
Cc1cccc(NC(=S)NCCO)c1C [Preparation E],found to be active in the antimotility tests,[2],active
same,found to be active in the antisecretory test,[3],active
Cc1ccccc1NC(=S)N(C)C [AA],ED50,[1],< 30 mg/kg
same,ED50,[2],< 30 mg/kg
same,ED50,[3],> 10 mg/kg
Cc1cc(C)cc(NC(=S)NCCO)c1 [J],ED50,[2],> 30 mg/kg
same,ED50,[3],> 10 mg/kg
Cc1c(Cl)cccc1NC(=S)NCCO [K],ED50,[1],< 30 mg/kg
same,ED50,[2],7.2 mg/kg
same,ED50,[3],> 10 mg/kg
"Cc1ccc(NC(=S)NCCO)c(C)c1 [Preparation F, 1-(2,4-dimethylphenyl)-3-(2-hydroxyethyl)-thiourea]",found to be active in the antimotility tests,[2],active
same,found to be active in the antisecretory test,[3],active
"CCOC(=O)C1(c2ccccc2)CCN(CCC(C#N)(c2ccccc2)c2ccccc2)CC1 [Lomotil, diphenoxylate hydrochloride, reference compound]",ED50,[1],9.9 mg/kg
same,ED50,[2],2 mg/kg
Cc1cc(Cl)ccc1NC(=S)NCCO [Preparation L],found to be active in the antimotility tests,[2],active
same,found to be active in the antisecretory test,[3],active
Cc1ccc(NC(=S)N(C)C)c(C)c1 [AB],ED50,[1],3.8 mg/kg
same,ED50,[2],4.4 mg/kg
same,ED50,[3],> 10 mg/kg
Cc1ccc(NC(=S)N(CCO)CCO)c(C)c1 [AM],ED50,[1],> 30 mg/kg
same,ED50,[2],> 30 mg/kg
same,ED50,[3],> 10 mg/kg
"CN1[C@@H]2CC[C@H]1C[C@@H](OC(=O)C(CO)c1ccccc1)C2 (stereo partly shown) [atropine, reference compound]",ED50,[1],> 40 mg/kg
same,ED50,[2],9.8 mg/kg
Cc1cc(C)c(NC(=S)NCCO)c(C)c1 [S],ED50,[1],< 30 mg/kg
same,ED50,[2],6.4 mg/kg
same,ED50,[3],< 10 mg/kg
OCCNC(=S)Nc1cccc2ccccc12 [Preparation T],found to be active in the antimotility tests,[2],active
Cc1ccc(NC(=S)NCCO)cc1 [D],ED50,[2],> 30 mg/kg
Cc1cccc(C)c1NC(=O)NCCO [AR],ED50,[1],> 30 mg/kg
same,ED50,[2],> 30 mg/kg
same,ED50,[3],> 10 mg/kg
"Cc1ccc(NC(=S)NCCN(C)C)c(C)c1 [Preparation AH, 1-(2,4-dimethylphenyl)-3-(2-dimethylaminoethyl)-thiourea]",found to be active in the antimotility tests,[2],active
Cc1ccc(NC(=S)NCCS)c(C)c1 [AK],ED50,[1],> 30 mg/kg
same,ED50,[2],15 to 30 mg/kg
same,ED50,[3],> 10 mg/kg
Cc1ccc(NC(=S)N(C)CCO)c(C)c1 [AL],ED50,[1],> 30 mg/kg
same,ED50,[2],> 30 mg/kg
same,ED50,[3],> 10 mg/kg
Cc1ccc(NC(=S)N(C)C)c(C)c1 [Preparation AB],found to be active in the antimotility tests,[2],active
Cc1cc(Br)ccc1NC(=S)NCCO [Preparation O],found to be active in the antimotility tests,[2],active
Cc1ccc(NC(=S)NCCN)c(C)c1 [Preparation AG],found to be active in the antimotility tests,[2],active
CCc1ccccc1NC(=S)NCCO [Preparation B],found to be active in the antimotility tests,[2],active
"Cc1cc(Cl)ccc1NC(=S)N(C)C [Preparation AD, 1-(2-methyl-4-chlorophenyl)-3,3-dimethylthiourea]",found to be active in the antimotility tests,[2],active
Cc1cccc(Cl)c1NC(=S)NCCO [Preparation N],found to be active in the antimotility tests,[2],active
Cc1cc(Cl)ccc1NC(=S)NCCO [L],ED50,[1],< 30 mg/kg
same,ED50,[2],15 to 30 mg/kg
same,ED50,[3],1 to 3 mg/kg
Cc1cc(O)ccc1NC(=S)NCCO [Q],ED50,[1],> 30 mg/kg
same,ED50,[2],> 30 mg/kg
same,ED50,[3],> 10 mg/kg
CCc1ccccc1NC(=S)NCCO [B],ED50,[1],15 to 30 mg/kg
same,ED50,[2],> 15 mg/kg
same,ED50,[3],> 10 mg/kg
COc1ccc(NC(=S)NCCO)c(C)c1 [Preparation R],found to be active in the antimotility tests,[2],active
Cc1cccc(NC(=S)NCCO)c1C [E],ED50,[1],12.5 mg/kg
same,ED50,[2],5 mg/kg
same,ED50,[3],3 mg/kg
Cc1cccc(C)c1NC(=S)NCCN [AI],ED50,[1],11.5 mg/kg
same,ED50,[2],15.5 mg/kg
same,ED50,[3],> 10 mg/kg
Cc1ccc(NC(=S)NC(C)CO)c(C)c1 (stereo not shown) [AN],ED50,[2],> 30 mg/kg
same,ED50,[3],> 10 mg/kg
Cc1ccccc1NC(=S)N(C)C [Preparation AA],found to be active in the antimotility tests,[2],active
OCCNC(=S)Nc1cccc2ccccc12 [T],ED50,[1],15 to 30 mg/kg
same,ED50,[2],7 mg/kg
Cc1ccc(NC(=S)NCCCO)c(C)c1 [AQ],ED50,[1],> 30 mg/kg
same,ED50,[2],> 30 mg/kg
same,ED50,[3],> 10 mg/kg
Cc1ccc(NC(=S)NC(C)(C)CO)c(C)c1 [AO],ED50,[1],> 30 mg/kg
same,ED50,[2],< 30 mg/kg
same,ED50,[3],> 10 mg/kg
